Source: the RepoRT retention time repository

Experiment: HILIC, Waters ACQUITY UPLC BEH Amide, 100 × 2.1 mm, 1.7 µm; A: water + 0.125% formic acid + 10 mM ammonium formate; B: 5% water + 95% acetonitrile + 0.125% formic acid + 10 mM ammonium formate; gradient (min/%B) 0/100 2/100 7.7/70 9.5/40 10.25/30 12.75/100 17/100
Details: stereoisomer not certain

Q: For `NC1C(O)OC(COP(=O)(O)O)C(O)C1O` (stereo not given) [Glucosamine-6-phosphate], which LC retention time is on record?
A: 10.1 min

Q: Which LC retention time does the source give for `O=P(O)(O)OC1OC(CO)C(O)C(O)C1O` (stereo not given) [Glucose-1-phosphate] here?
A: 9.61 min

Q: With `O=P(O)(O)OCC1OC(O)C(O)C(O)C1O` (stereo not given) [Glucose-6-phosphate] as the compound, how does the LC retention time read?
A: 9.86 min

Q: With `OCC1OC(O)C(O)C(O)C1O` (stereo not given) [Glucose] as the compound, how does the LC retention time read?
A: 1.84 min

Q: Which LC retention time does the source give for `NC(CCC(=O)O)C(=O)O` (stereo not given) [Glutamic acid] here?
A: 8.85 min

Q: Which LC retention time does the source give for `NC(CCC(=O)NC(CSSCC(NC(=O)CCC(N)C(=O)O)C(=O)NCC(=O)O)C(=O)NCC(=O)O)C(=O)O` (stereo not given) [Glutathione (oxidized)] here?
A: 10.2 min

Q: With `NC(CCC(=O)NC(CS)C(=O)NCC(=O)O)C(=O)O` (stereo not given) [Glutathione (reduced)] as the compound, how does the LC retention time read?
A: 9.07 min

Q: With `NCC(=O)NCC(=O)NCC(=O)O` [Gly-Gly-Gly] as the compound, how does the LC retention time read?
A: 9.18 min

Q: For `CCC(C)C(NC(=O)CN)C(=O)O` (stereo not given) [Gly-Ile], which LC retention time is on record?
A: 7.67 min

Q: For `[NH3+]CC(=O)N1CCCC1C(=O)[O-]` (stereo not given) [Gly-Pro], which LC retention time is on record?
A: 8.62 min

Q: Which LC retention time does the source give for `CC(NC(=O)C(Cc1ccc(O)cc1)NC(=O)CN)C(=O)O` (stereo not drawn) [Gly-Tyr-Ala] here?
A: 7.89 min

Q: With `NCC(=O)NC(Cc1ccc(O)cc1)C(=O)O` (stereo not given) [Gly-Tyr] as the compound, how does the LC retention time read?
A: 8.07 min

Q: With `CC(C)C(NC(=O)CN)C(=O)O` (stereo not given) [Gly-val] as the compound, how does the LC retention time read?
A: 8.05 min

Q: Which LC retention time does the source give for `C[N+](C)(C)CCOP(=O)([O-])OCC(O)CO` (stereo not given) [Glycerophosphocholine] here?
A: 8.67 min

Q: For `NCC(=O)O` [Glycine], which LC retention time is on record?
A: 8.33 min

Q: For `COc1cc2c(=O)c(-c3ccc(O)cc3)coc2cc1O` [Glycitein], which LC retention time is on record?
A: 1.32 min

Q: With `CC(C)CC(NC(=O)CN)C(=O)O` (stereo not given) [Glycyl-leucine] as the compound, how does the LC retention time read?
A: 8.14 min

Q: For `CC(C)CC(NC(=O)C(COC(C)(C)C)NC(=O)C(Cc1ccc(O)cc1)NC(=O)C(CO)NC(=O)C(Cc1c[nH]c2ccccc12)NC(=O)C(Cc1cnc[nH]1)NC(=O)C1CCC(=O)N1)C(=O)NC(CCCN=C(N)N)C(=O)N1CCCC1C(=O)NNC(N)=O` (stereo not given) [Goserelin], which LC retention time is on record?
A: 7.83 min

Q: Which LC retention time does the source give for `CN1C2CCCC1CC(NC(=O)c1nn(C)c3ccccc13)C2` (stereo not given) [Granisetron] here?
A: 4.12 min

Q: For `NC(N)=NCC(=O)O` [Guanidinoacetic acid], which LC retention time is on record?
A: 8.16 min

Q: Which LC retention time does the source give for `Nc1nc2nc[nH]c2c(=O)[nH]1` [Guanine] here?
A: 6.4 min

Q: For `Nc1nc2c(ncn2C2OC3COP(=O)(O)OC3C2O)c(=O)[nH]1` (stereo not given) [Guanosine-3',5'-cyclic monophosphate], which LC retention time is on record?
A: 8.39 min

Q: With `Nc1nc2c(ncn2C2OC(CO)C(O)C2O)c(=O)[nH]1` (stereo not given) [Guanosine] as the compound, how does the LC retention time read?
A: 7.33 min

Q: For `CC1CC2C3CC(F)C4=CC(=O)C(Cl)=CC4(C)C3(F)C(O)CC2(C)C1(O)C(=O)CO` (stereo not given) [Halometasone], which LC retention time is on record?
A: 1.12 min

Q: With `O=C(CCCN1CCC(O)(c2ccc(Cl)cc2)CC1)c1ccc(F)cc1` [Haloperidol] as the compound, how does the LC retention time read?
A: 2.31 min

Q: Which LC retention time does the source give for `CCCCCCCCCCCCCCCCC(=O)O` [Heptadecanoic acid] here?
A: 3.01 min

Q: For `CCCCCC(=O)O` [Hexanoic acid], which LC retention time is on record?
A: 4.89 min

Q: For `CCCCCC(=O)OC(CC(=O)[O-])C[N+](C)(C)C` [Hexanoyl-L-carnitine], which LC retention time is on record?
A: 5.09 min

Q: Which LC retention time does the source give for `CC(CCCCC(=O)Nc1ccc(C(F)(F)F)cc1)NCCc1cnc[nH]1` (stereo not given) [Histamine-trifluoromethyltoluide] here?
A: 5.3 min

Q: Which LC retention time does the source give for `NCCc1cnc[nH]1` [Histamine] here?
A: 8.29 min

Q: Which LC retention time does the source give for `NC(Cc1cnc[nH]1)C(=O)O` (stereo not given) [Histidine] here?
A: 9.48 min

Q: With `NC(N)=NCCCCC(N)C(=O)O` (stereo not given) [Homoarginine] as the compound, how does the LC retention time read?
A: 9.34 min

Q: Which LC retention time does the source give for `NC(CCS)C(=O)O` (stereo not given) [Homocysteine] here?
A: 9.58 min

Q: For `NC(CCSSCCC(N)C(=O)O)C(=O)O` (stereo not given) [Homocystine], which LC retention time is on record?
A: 9.58 min

Q: With `COC(=O)CC(O)(CCCC(C)(C)O)C(=O)OC1C(OC)=CC23CCCN2CCc2cc4c(cc2C13)OCO4` (stereo not given) [Homoharringtonine] as the compound, how does the LC retention time read?
A: 3.24 min

Q: Which LC retention time does the source give for `NC(CCO)C(=O)O` (stereo not given) [Homoserine] here?
A: 8.29 min

Q: Which LC retention time does the source give for `COc1ccc(CCN)cc1OC` [Homoveratrylamine] here?
A: 4.78 min

Q: For `CC=C1C2C=C(C)CC1(N)c1ccc(=O)[nH]c1C2` (stereo not given) [Huperzine], which LC retention time is on record?
A: 5.74 min

Q: With `O=C(O)CCc1ccccc1` [Hydrocinnamic acid] as the compound, how does the LC retention time read?
A: 8.71 min

Q: Which LC retention time does the source give for `COc1ccc2c3c1OC1C(=O)CCC4C(C2)N(C)CCC314` (stereo not given) [Hydrocodone] here?
A: 3.8 min

Q: Which LC retention time does the source give for `CC12CCC(=O)C=C1CCC1C2C(O)CC2(C)C1CCC2(O)C(=O)CO` (stereo not given) [Hydrocortisone] here?
A: 2.56 min

Q: With `CN1CCC23c4c5ccc(O)c4OC2C(=O)CCC3C1C5` (stereo not given) [Hydromorphone] as the compound, how does the LC retention time read?
A: 5.22 min

Q: With `O=C(O)C1CC(O)CN1` (stereo not given) [Hydroxyproline] as the compound, how does the LC retention time read?
A: 8.14 min

Q: With `O=c1[nH]cnc2nc[nH]c12` [Hypoxanthine] as the compound, how does the LC retention time read?
A: 4.99 min

Q: Which LC retention time does the source give for `COc1ccc(-c2oc3c(CC=C(C)C)c(OC4OC(CO)C(O)C(O)C4O)cc(O)c3c(=O)c2OC2OC(C)C(O)C(O)C2O)cc1` (stereo not given) [Icarin] here?
A: 4.74 min

Q: Which LC retention time does the source give for `CC(=O)C1(O)Cc2c(O)c3c(c(O)c2C(OC2CC(N)C(O)C(C)O2)C1)C(=O)c1ccccc1C3=O` (stereo not given) [Idarubicin] here?
A: 5.42 min

Q: With `COC1=C(OC)C(=O)C(CCCCCCCCCCO)=C(C)C1=O` [Idebenone] as the compound, how does the LC retention time read?
A: 0.96 min

Q: Which LC retention time does the source give for `CC(C(O)c1ccc(O)cc1)N1CCC(Cc2ccccc2)CC1` (stereo not given) [Ifenprodil] here?
A: 3.17 min

Q: Which LC retention time does the source give for `Cc1ccc(NC(=O)c2ccc(CN3CCN(C)CC3)cc2)cc1Nc1nccc(-c2cccnc2)n1` [Imatinib] here?
A: 5.36 min

Q: Which LC retention time does the source give for `c1c[nH]cn1` [Imidazole] here?
A: 4.53 min

Q: With `O=C1C(c2c(O)[nH]c3ccccc23)=Nc2ccccc21` [Indarubicin] as the compound, how does the LC retention time read?
A: 1.07 min

Q: With `CNC1CC(c2ccc(Cl)c(Cl)c2)c2ccccc21` (stereo not given) [Indatraline] as the compound, how does the LC retention time read?
A: 2.88 min

Q: For `CC(C)(C)NC(=O)C1CN(Cc2cccnc2)CCN1CC(O)CC(Cc1ccccc1)C(=O)NC1c2ccccc2CC1O` (stereo not given) [Indinavir], which LC retention time is on record?
A: 2.17 min

Q: Which LC retention time does the source give for `NC(=O)Cc1c[nH]c2ccccc12` [Indole-3-acetamide] here?
A: 1.36 min

Q: With `OCc1c[nH]c2ccccc12` [Indole-3-carbinol] as the compound, how does the LC retention time read?
A: 1.24 min

Q: With `O=Cc1c[nH]c2ccccc12` [Indole-3-carboxaldehyde] as the compound, how does the LC retention time read?
A: 1.16 min

Q: Which LC retention time does the source give for `O=C(O)c1c[nH]c2ccccc12` [Indole-3-carboxylic acid] here?
A: 1.41 min

Q: Which LC retention time does the source give for `O=C(O)C(=O)Cc1c[nH]c2ccccc12` [Indole-3-pyruvic acid] here?
A: 5.11 min

Q: With `O=C(O)C(O)Cc1c[nH]c2ccccc12` (stereo not given) [Indolelactic acid] as the compound, how does the LC retention time read?
A: 2.25 min

Q: With `COc1ccc2c(c1)c(CC(=O)O)c(C)n2C(=O)c1ccc(Cl)cc1` [Indomethacin] as the compound, how does the LC retention time read?
A: 1.08 min

Q: With `O=c1[nH]cnc2c1ncn2C1OC(CO)C(O)C1O` (stereo not given) [Inosine] as the compound, how does the LC retention time read?
A: 6.19 min

Q: For `Nc1c2c(nc3c1CCC3)CCCC2` [Ipidacrine], which LC retention time is on record?
A: 3.33 min

Q: For `CC(C)Oc1ccc2c(=O)c(-c3ccccc3)coc2c1` [Ipriflavone], which LC retention time is on record?
A: 0.94 min

Q: Which LC retention time does the source give for `CCCCC1=NC2(CCCC2)C(=O)N1Cc1ccc(-c2ccccc2-c2nn[nH]n2)cc1` [Irbesartan] here?
A: 1.16 min

Q: For `CCc1c2c(nc3ccc(OC(=O)N4CCC(N5CCCCC5)CC4)cc13)-c1cc3c(c(=O)n1C2)COC(=O)C3(O)CC` (stereo not given) [Irinotecan], which LC retention time is on record?
A: 5.03 min
